Assay results as given in PubChem BioAssay (NCI).
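Tested at 5 concentrations; 48 h exposure; 96-well plates; endpoints linearly interpolated, else capped at highest concentration. Definition used: TGI = concentration required for complete inhibition of growth.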

Experiments:
Assay in all cases: growth of human tumour cells (NCI), 48 h
UO-31 renal = system: UO-31 renal
A549 NSCLC = system: A549 NSCLC
M14 melanoma = system: M14 melanoma
T-47D breast = system: T-47D breast
786-0 renal = system: 786-0 renal
OVCAR-5 ovarian = system: OVCAR-5 ovarian
UACC-62 melanoma = system: UACC-62 melanoma
MDA-MB-435 = system: MDA-MB-435
UACC-257 melanoma = system: UACC-257 melanoma
RXF 393 renal = system: RXF 393 renal
U251 CNS = system: U251 CNS
SK-OV-3 ovarian = system: SK-OV-3 ovarian
DU-145 prostate = system: DU-145 prostate
HS 578T breast = system: HS 578T breast
SK-MEL-28 melanoma = system: SK-MEL-28 melanoma
NCI-H226 lung = system: NCI-H226 lung
BT-549 breast = system: BT-549 breast
NCI-H460 lung = system: NCI-H460 lung
K-562 leukemia = system: K-562 leukemia
IGROV1 ovarian = system: IGROV1 ovarian
HL-60(TB) leukemia = system: HL-60(TB) leukemia
HCT-15 colon = system: HCT-15 colon
SNB-19 CNS = system: SNB-19 CNS
MDA-N = system: MDA-N
KM12 colon = system: KM12 colon
MDA-MB-231 breast = system: MDA-MB-231 breast
RPMI-8226 leukemia = system: RPMI-8226 leukemia
SF-539 CNS = system: SF-539 CNS
HT29 colon = system: HT29 colon
NCI/ADR-RES ovarian = system: NCI/ADR-RES ovarian
TK-10 renal = system: TK-10 renal
CAKI-1 renal = system: CAKI-1 renal
SN12C renal = system: SN12C renal
PC-3 prostate = system: PC-3 prostate
COLO 205 colon = system: COLO 205 colon
EKVX NSCLC = system: EKVX NSCLC
CCRF-CEM leukemia = system: CCRF-CEM leukemia
NCI-H23 lung = system: NCI-H23 lung
OVCAR-3 ovarian = system: OVCAR-3 ovarian
SK-MEL-2 melanoma = system: SK-MEL-2 melanoma
SK-MEL-5 melanoma = system: SK-MEL-5 melanoma
A498 renal = system: A498 renal
HOP-62 NSCLC = system: HOP-62 NSCLC
LOX IMVI melanoma = system: LOX IMVI melanoma
OVCAR-4 ovarian = system: OVCAR-4 ovarian
SR leukemia = system: SR leukemia
SW-620 colon = system: SW-620 colon
NCI-H522 lung = system: NCI-H522 lung
ACHN renal = system: ACHN renal
HCC-2998 colon = system: HCC-2998 colon
SF-295 CNS = system: SF-295 CNS
MOLT-4 leukemia = system: MOLT-4 leukemia
SF-268 CNS = system: SF-268 CNS
HCT-116 colon = system: HCT-116 colon
OVCAR-8 ovarian = system: OVCAR-8 ovarian
MALME-3M melanoma = system: MALME-3M melanoma
HOP-92 NSCLC = system: HOP-92 NSCLC
MCF7 breast = system: MCF7 breast

Q: What does the source list for `Cn1ncc(NCCn2cnc3c2c(=O)n(C)c(=O)n3C)c(Cl)c1=O`?
A: TGI (UO-31 renal): > 100 µM; TGI (A549 NSCLC): > 100 µM; TGI (M14 melanoma): > 100 µM; TGI (T-47D breast): > 100 µM; TGI (786-0 renal): > 100 µM; TGI (OVCAR-5 ovarian): > 100 µM; TGI (UACC-62 melanoma): > 100 µM; TGI (MDA-MB-435): > 100 µM; TGI (UACC-257 melanoma): > 100 µM; TGI (RXF 393 renal): > 100 µM; TGI (U251 CNS): > 100 µM; TGI (SK-OV-3 ovarian): > 100 µM; TGI (DU-145 prostate): > 100 µM; TGI (HS 578T breast): > 100 µM; TGI (SK-MEL-28 melanoma): > 100 µM; TGI (NCI-H226 lung): > 100 µM; TGI (BT-549 breast): > 100 µM; TGI (NCI-H460 lung): > 100 µM; TGI (K-562 leukemia): > 100 µM; TGI (IGROV1 ovarian): > 100 µM; TGI (HL-60(TB) leukemia): > 100 µM; TGI (HCT-15 colon): > 100 µM; TGI (SNB-19 CNS): > 100 µM; TGI (MDA-N): > 100 µM; TGI (KM12 colon): > 100 µM; TGI (MDA-MB-231 breast): > 100 µM; TGI (RPMI-8226 leukemia): > 100 µM; TGI (SF-539 CNS): > 100 µM; TGI (HT29 colon): > 100 µM; TGI (NCI/ADR-RES ovarian): > 100 µM; TGI (TK-10 renal): > 100 µM; TGI (CAKI-1 renal): > 100 µM; TGI (SN12C renal): > 100 µM; TGI (PC-3 prostate): > 100 µM; TGI (COLO 205 colon): > 100 µM; TGI (EKVX NSCLC): > 100 µM; TGI (CCRF-CEM leukemia): > 100 µM; TGI (NCI-H23 lung): > 100 µM; TGI (OVCAR-3 ovarian): > 100 µM; TGI (SK-MEL-2 melanoma): > 100 µM; TGI (SK-MEL-5 melanoma): > 100 µM; TGI (A498 renal): > 100 µM; TGI (HOP-62 NSCLC): > 100 µM; TGI (LOX IMVI melanoma): > 100 µM; TGI (OVCAR-4 ovarian): > 100 µM; TGI (SR leukemia): > 100 µM; TGI (SW-620 colon): > 100 µM; TGI (NCI-H522 lung): > 100 µM; TGI (ACHN renal): > 100 µM; TGI (HCC-2998 colon): > 100 µM; TGI (SF-295 CNS): > 100 µM; TGI (MOLT-4 leukemia): > 100 µM; TGI (SF-268 CNS): > 100 µM; TGI (HCT-116 colon): > 100 µM; TGI (OVCAR-8 ovarian): > 100 µM; TGI (MALME-3M melanoma): > 100 µM; TGI (HOP-92 NSCLC): > 100 µM; TGI (MCF7 breast): > 100 µM

Q: With `CCN1C(Cl)=NS(=O)(=O)c2ccccc21` as the compound, how does the TGI (UO-31 renal) read?
A: 32.1 µM

Q: And the TGI (A549 NSCLC)?
A: > 100 µM

Q: And the TGI (M14 melanoma)?
A: 32.8 µM

Q: What about the TGI (T-47D breast) of the same compound?
A: 78.6 µM

Q: What about the TGI (786-0 renal) of the same compound?
A: 64.6 µM

Q: What about the TGI (OVCAR-5 ovarian) of the same compound?
A: 76 µM

Q: What about the TGI (UACC-62 melanoma) of the same compound?
A: 25.6 µM

Q: And the TGI (MDA-MB-435)?
A: > 100 µM

Q: And the TGI (UACC-257 melanoma)?
A: 80.8 µM

Q: And the TGI (RXF 393 renal)?
A: 32.2 µM

Q: What about the TGI (U251 CNS) of the same compound?
A: > 100 µM

Q: What about the TGI (SK-OV-3 ovarian) of the same compound?
A: > 100 µM

Q: And the TGI (DU-145 prostate)?
A: > 100 µM

Q: What about the TGI (HS 578T breast) of the same compound?
A: > 100 µM

Q: And the TGI (SK-MEL-28 melanoma)?
A: > 100 µM

Q: And the TGI (NCI-H226 lung)?
A: 55.7 µM

Q: And the TGI (BT-549 breast)?
A: 44 µM

Q: And the TGI (NCI-H460 lung)?
A: 64.7 µM

Q: What about the TGI (K-562 leukemia) of the same compound?
A: 39.3 µM

Q: What about the TGI (IGROV1 ovarian) of the same compound?
A: > 100 µM

Q: And the TGI (HL-60(TB) leukemia)?
A: 87.2 µM

Q: What about the TGI (HCT-15 colon) of the same compound?
A: 35.2 µM

Q: What about the TGI (SNB-19 CNS) of the same compound?
A: > 100 µM

Q: What about the TGI (MDA-N) of the same compound?
A: > 100 µM

Q: What about the TGI (KM12 colon) of the same compound?
A: > 100 µM

Q: And the TGI (MDA-MB-231 breast)?
A: 65.1 µM

Q: What about the TGI (SF-539 CNS) of the same compound?
A: 35.9 µM

Q: What about the TGI (HT29 colon) of the same compound?
A: > 100 µM

Q: And the TGI (NCI/ADR-RES ovarian)?
A: 85.2 µM

Q: And the TGI (TK-10 renal)?
A: 37 µM

Q: What about the TGI (CAKI-1 renal) of the same compound?
A: 4.31 µM

Q: What about the TGI (SN12C renal) of the same compound?
A: 37.9 µM

Q: And the TGI (PC-3 prostate)?
A: > 100 µM

Q: What about the TGI (COLO 205 colon) of the same compound?
A: 32.5 µM

Q: What about the TGI (EKVX NSCLC) of the same compound?
A: 53.7 µM

Q: And the TGI (CCRF-CEM leukemia)?
A: 81 µM

Q: What about the TGI (NCI-H23 lung) of the same compound?
A: 52.5 µM

Q: What about the TGI (OVCAR-3 ovarian) of the same compound?
A: 34.8 µM

Q: What about the TGI (SK-MEL-2 melanoma) of the same compound?
A: > 100 µM

Q: And the TGI (SK-MEL-5 melanoma)?
A: 33.1 µM

Q: And the TGI (A498 renal)?
A: 44.6 µM

Q: What about the TGI (HOP-62 NSCLC) of the same compound?
A: 70.1 µM

Q: What about the TGI (LOX IMVI melanoma) of the same compound?
A: 36.7 µM

Q: What about the TGI (OVCAR-4 ovarian) of the same compound?
A: 47.8 µM

Q: What about the TGI (SR leukemia) of the same compound?
A: > 100 µM

Q: And the TGI (SW-620 colon)?
A: > 100 µM

Q: What about the TGI (NCI-H522 lung) of the same compound?
A: 24.6 µM

Q: What about the TGI (ACHN renal) of the same compound?
A: 34.1 µM

Q: And the TGI (HCC-2998 colon)?
A: 45.7 µM

Q: What about the TGI (SF-295 CNS) of the same compound?
A: > 100 µM

Q: And the TGI (MOLT-4 leukemia)?
A: > 100 µM

Q: And the TGI (SF-268 CNS)?
A: > 100 µM

Q: And the TGI (HCT-116 colon)?
A: 74 µM

Q: And the TGI (OVCAR-8 ovarian)?
A: > 100 µM

Q: And the TGI (HOP-92 NSCLC)?
A: 42.1 µM

Q: What about the TGI (MCF7 breast) of the same compound?
A: > 100 µM
